Measurements from EPA's ToxRefDB 2.

Tests used:
rat [1] = settings: Prenatal developmental toxicity study, other, Oral, Gavage/Intubation, dose end: 15 GD
rat [2] = settings: Subchronic oral toxicity in rodents, other, Feed, dose end: 13 week, group: systemic, systemic / in life observation / body weight / body weight gain + systemic / pathology microscopic / liver / infiltration cellular + …
dog [3] = settings: Subchronic oral toxicity in nonrodent, beagle, Feed, dose end: 13 week, group: systemic, systemic / in life observation / body weight / body weight gain + systemic / in life observation / food consumption / food consumption
rat [4] = settings: Prenatal developmental toxicity study; sprague dawley; Oral; Gavage/Intubation; dose end: 17 GD; group: maternal; systemic / in life observation / body weight / body weight + systemic / in life observation / body weight / body weight gain + systemic / in…
rabbit [5] = settings: Prenatal developmental toxicity study, new zealand white, Oral, Gavage/Intubation, dose end: 18 GD
rat [6] = settings: Prenatal developmental toxicity study; sprague dawley; Oral; Gavage/Intubation; dose end: 17 GD; group: maternal; systemic / in life observation / body weight / body weight + systemic / in life observation / body weight / body weight gain
rat [7] = settings: Sub-acute repeat dose toxicity, sprague dawley, Oral, Feed, dose end: 28 day, group: systemic
rabbit [8] = settings: Prenatal developmental toxicity study, new zealand white, Oral, Gavage/Intubation, dose end: 18 GD; remark: listed apart in the source
mouse [9] = settings: Carcinogenicity, cd1, Oral, Feed, dose end: 98 week, group: systemic
mouse [10] = settings: Carcinogenicity, cd1, Oral, Water, dose end: 104 week, group: systemic
rat [11] = settings: Multigenerational reproductive toxicity study, other, Oral, Gavage/Intubation, dose end: 2 generation
dog [12] = settings: Chronic toxicity, beagle, Oral, Gavage/Intubation, dose end: 52 week, group: systemic
rat [13] = settings: Chronic toxicity, other, Oral, Gavage/Intubation, dose end: 91 week, group: systemic
rabbit [14] = settings: Prenatal developmental toxicity study, new zealand white, Oral, Gavage/Intubation, dose end: 19 GD
rat [15] = settings: Prenatal developmental toxicity study, other, Oral, Gavage/Intubation, dose end: 15 GD; remark: listed apart in the source
rabbit [16] = settings: Prenatal developmental toxicity study; new zealand white; Oral; Gavage/Intubation; dose end: 19 GD; group: maternal; reproductive / reproductive performance / postimplantation loss / postimplantation loss + reproductive / reproductive performance / …
dog [17] = settings: Chronic toxicity; beagle; Oral; Capsule; dose end: 52 week; group: systemic; systemic / clinical chemistry / cholesterol / cholesterol + systemic / hematology / lymphocyte / lymphocyte + systemic / in life observation…
rat [18] = settings: Subchronic oral toxicity in rodents, sprague dawley, Feed, dose end: 13 week, group: systemic
rat [19] = settings: Prenatal developmental toxicity study, other, Oral, Gavage/Intubation, dose end: 15 GD; remark: listed apart in the source
rat [20] = settings: Multigenerational reproductive toxicity study, other, Oral, Feed, dose end: 2 generation
rat [21] = settings: Combined chronic toxicity/carcinogenicity; sprague dawley; Oral; Feed; dose end: 104 week; group: systemic; systemic / in life observation / body weight / body weight
mouse [22] = settings: Carcinogenicity; cd1; Oral; Feed; dose end: 78 week; group: systemic; systemic / in life observation / body weight / body weight gain + systemic / pathology microscopic / epididymis / concretion + systemic / …
rat [23] = settings: Other (NonGuideline or Guideline Not Listed); sprague dawley; Oral; Gavage/Intubation; dose end: 7 day; group: cannot be grouped; systemic / clinical chemistry / alanine aminotransferase (alt/sgpt) / alanine aminotransferase (alt/sgpt) + systemic / clinical chemistry / …
[24] = group: developmental, developmental / developmental malformation / bone / unossified + developmental / developmental malformation / bone / full supernumerary + …
[25] = group: maternal, systemic / in life observation / body weight / body weight gain
[26] = group: maternal, systemic / in life observation / body weight / body weight gain + systemic / in life observation / body weight / body weight + systemic / in…
[27] = group: developmental, systemic / in life observation / body weight / fetal weight
[28] = group: maternal, systemic / in life observation / clinical signs / defecation + systemic / in life observation / mortality / mortality
[29] = group: maternal, systemic / in life observation / clinical signs / defecation + systemic / in life observation / mortality / mortality + systemic / in life …
[30] = systemic / clinical chemistry / lactic acid dehydrogenase (ldh) / lactic acid dehydrogenase (ldh) + systemic / clinical chemistry / sorbitol…
[31] = group: developmental, developmental / developmental malformation / brain / misshapen cerebrum + developmental / developmental malformation / eye / malpositioned…
[32] = systemic / pathology microscopic / liver / adenoma + systemic / pathology microscopic / liver / adenoma/carcinoma combined
[33] = systemic / in life observation / body weight / body weight gain
[34] = systemic / in life observation / mortality / mortality + systemic / pathology microscopic / kidney / degeneration + systemic / pathology …
[35] = group: offspring, developmental / offspring survival late / viability index / viability index + systemic / in life observation / body weight / offspring (pup…
[36] = group: parental, systemic / in life observation / body weight / body weight + systemic / in life observation / body weight / body weight gain + systemic / in…
[37] = systemic / clinical chemistry / cholesterol / cholesterol + systemic / hematology / mean corpuscular (cell) volume (mcv) / mean corpuscular…
[38] = systemic / hematology / mean corpuscular hemoglobin (mch) / mean corpuscular hemoglobin (mch)
[39] = systemic / clinical chemistry / glucose / glucose
[40] = group: developmental, developmental / developmental malformation / brain / [other] + developmental / developmental malformation / general / crown-rump length + …
[41] = group: maternal, systemic / organ weight / uterus / nos
[42] = group: developmental, developmental / developmental malformation / bone / bipartite ossification + developmental / developmental malformation / bone / thickened…
[43] = systemic / clinical chemistry / alanine aminotransferase (alt/sgpt) / alanine aminotransferase (alt/sgpt) + systemic / clinical chemistry / …
[44] = group: developmental, developmental / developmental malformation / bone / bipartite ossification + developmental / developmental malformation / bone / cervical + …
[45] = group: maternal, reproductive / reproductive performance / postimplantation loss / postimplantation loss + reproductive / reproductive performance / …
[46] = group: offspring, systemic / in life observation / body weight / offspring (pup) weight
[47] = group: parental, systemic / in life observation / body weight / body weight gain + systemic / in life observation / food consumption / food consumption

## O=C(O)COc1ccc(Cl)cc1 [4-Chlorophenoxyacetic acid]
Rat [1]; group: developmental, developmental / developmental malformation / bone / unossified
  LOAEL: 300 mg/kg/day
Rat [1]; group: developmental, developmental / developmental malformation / bone / unossified + developmental / developmental malformation / bone / full supernumerary
  LEL: 300 mg/kg/day
Rat [1]; [24]
  NEL: 150 mg/kg/day
  NOAEL: 150 mg/kg/day
Rat [1]; [25]
  LEL: 300 mg/kg/day
  LOAEL: 300 mg/kg/day
Rat [1]; [26]
  NEL: 150 mg/kg/day
  NOAEL: 150 mg/kg/day
Rat [2]
  LEL: 517 mg/kg/day
  LOAEL: 517 mg/kg/day
  NEL: 132 mg/kg/day
  NOAEL: 132 mg/kg/day
Dog [3]
  LEL: 17.4 mg/kg/day
  LOAEL: 17.4 mg/kg/day
  NEL: 4.05 mg/kg/day
  NOAEL: 4.05 mg/kg/day

## NCc1cccc(C2CCN(C(=O)c3ccc(C#Cc4ccccc4F)o3)CC2)c1 [AVE5638]
Rat [4]
  LEL: 40 mg/kg/day
  LOAEL: 40 mg/kg/day
  NEL: 5 mg/kg/day
  NOAEL: 5 mg/kg/day
Rabbit [5]; [27]
  LEL: 225 mg/kg/day
  LOAEL: 225 mg/kg/day
  NEL: 100 mg/kg/day
  NOAEL: 100 mg/kg/day
Rabbit [5]; [28]
  LEL: 100 mg/kg/day
  LOAEL: 100 mg/kg/day
Rabbit [5]; [29]
  NEL: 25 mg/kg/day
  NOAEL: 25 mg/kg/day
Rat [6]
  LEL: 40 mg/kg/day
  LOAEL: 40 mg/kg/day
  NEL: 5 mg/kg/day
  NOAEL: 5 mg/kg/day

## ClC(Cl)(Cl)c1ccccc1 [Benzotrichloride]
Rat [7]; [30]
  LOAEL: > 25 mg/kg/day
  NEL: 0.025 mg/kg/day
  NOAEL: ≥ 25 mg/kg/day
Rat [7]; systemic / clinical chemistry / sorbitol dehydrogenase / sorbitol dehydrogenase
  LEL: 0.25 mg/kg/day

## CC(Oc1cccc(Cl)c1)C(=O)O (centres undefined) [Cloprop]
Rabbit [8]; [31]
  LEL: 200 mg/kg/day
  LOAEL: 200 mg/kg/day
  NEL: 100 mg/kg/day
  NOAEL: 100 mg/kg/day
Rabbit [8]; [25]
  LEL: 200 mg/kg/day
  LOAEL: 200 mg/kg/day
  NEL: 100 mg/kg/day
  NOAEL: 100 mg/kg/day
Mouse [9]; [32]
  LEL: 98 mg/kg/day
  NEL: < 98 mg/kg/day
Mouse [9]; systemic / pathology microscopic / liver / hypertrophy
  LOAEL: 402 mg/kg/day
Mouse [9]; systemic / pathology microscopic / liver / hypertrophy + systemic / pathology microscopic / liver / adenoma + systemic / pathology …
  NOAEL: 98 mg/kg/day

## N#CN [Cyanamide]
Mouse [10]; [33]
  LEL: 5 mg/kg/day
  NEL: < 5 mg/kg/day
Mouse [10]; [34]
  LOAEL: 16.9 mg/kg/day
  NOAEL: 6.9 mg/kg/day
Rat [11]; [35]
  LEL: 1.25 mg/kg/day
  LOAEL: 1.25 mg/kg/day
  NEL: < 1.25 mg/kg/day
  NOAEL: < 1.25 mg/kg/day
Rat [11]; [36]
  LEL: 3.75 mg/kg/day
  LOAEL: 3.75 mg/kg/day
  NEL: 1.25 mg/kg/day
  NOAEL: 1.25 mg/kg/day
Dog [12]; [37]
  LOAEL: 2 mg/kg/day
  NOAEL: 0.4 mg/kg/day
Dog [12]; [38]
  LEL: 0.4 mg/kg/day
  NEL: < 0.4 mg/kg/day
Rat [13]; [39]
  LEL: 1 mg/kg/day
  NEL: < 1 mg/kg/day
Rat [13]; systemic / in life observation / body weight / body weight gain + systemic / pathology microscopic / thyroid gland / colloid content
  LOAEL: 7.5 mg/kg/day
Rat [13]; systemic / in life observation / body weight / body weight gain + systemic / pathology microscopic / thyroid gland / colloid content + …
  NOAEL: 2.5 mg/kg/day
Rabbit [14]; [40]
  LOAEL: 36 mg/kg/day
  NEL: 4 mg/kg/day
  NOAEL: 12 mg/kg/day
Rabbit [14]; group: developmental, developmental / developmental malformation / eye / retina fold
  LEL: 12 mg/kg/day
Rabbit [14]; [25]
  LOAEL: 12 mg/kg/day
Rabbit [14]; [41]
  LEL: 4 mg/kg/day
  NEL: < 4 mg/kg/day
Rabbit [14]; group: maternal, systemic / organ weight / uterus / nos + systemic / in life observation / body weight / body weight gain + reproductive / reproductive …
  NOAEL: 4 mg/kg/day
Rat [15]; [42]
  LEL: 90 mg/kg/day
  LOAEL: 90 mg/kg/day
  NEL: 30 mg/kg/day
  NOAEL: 30 mg/kg/day
Rat [15]; [25]
  LEL: 10 mg/kg/day
  LOAEL: 10 mg/kg/day
  NEL: < 10 mg/kg/day
  NOAEL: < 10 mg/kg/day

## COC(=O)c1c(Cl)nn(C)c1S(=O)(=O)NC(=O)Nc1nc(OC)cc(OC)n1 [Halosulfuron-methyl]
Rabbit [16]
  LEL: 150 mg/kg/day
  LOAEL: 150 mg/kg/day
  NEL: 50 mg/kg/day
  NOAEL: 50 mg/kg/day
Dog [17]
  LEL: 10 mg/kg/day
  LOAEL: 10 mg/kg/day
  NEL: 1 mg/kg/day
  NOAEL: 1 mg/kg/day
Rat [18]; [43]
  LOAEL: 497 mg/kg/day
  NEL: 28.8 mg/kg/day
  NOAEL: 116 mg/kg/day
Rat [18]; systemic / pathology microscopic / kidney / hemosiderosis
  LEL: 116 mg/kg/day
Rat [19]; [44]
  LEL: 750 mg/kg/day
  LOAEL: 750 mg/kg/day
  NEL: 250 mg/kg/day
  NOAEL: 250 mg/kg/day
Rat [19]; [45]
  LEL: 750 mg/kg/day
  LOAEL: 750 mg/kg/day
  NEL: 250 mg/kg/day
  NOAEL: 250 mg/kg/day
Rat [20]; [46]
  LEL: 61 mg/kg/day
  LOAEL: > 274 mg/kg/day
  NEL: 7.4 mg/kg/day
  NOAEL: ≥ 274 mg/kg/day
Rat [20]; group: parental, systemic / in life observation / body weight / body weight
  LEL: 69.7 mg/kg/day
Rat [20]; group: parental, systemic / in life observation / body weight / body weight + systemic / in life observation / food consumption / food consumption
  NEL: 8.9 mg/kg/day
Rat [20]; [47]
  LOAEL: 223 mg/kg/day
  NOAEL: 50.4 mg/kg/day
Rat [21]
  LEL: 139 mg/kg/day
  LOAEL: 139 mg/kg/day
  NEL: 56.3 mg/kg/day
  NOAEL: 56.3 mg/kg/day
Mouse [22]
  LEL: 972 mg/kg/day
  LOAEL: 972 mg/kg/day
  NEL: 410 mg/kg/day
  NOAEL: 410 mg/kg/day

## Fc1ccccc1[C@@H](F)COC1CCC(Nc2ncnc3[nH]ncc23)CC1 (some centres undefined) [MK-968]
Rat [23]
  LEL: 300 mg/kg/day
  LOAEL: > 750 mg/kg/day
  NEL: 10 mg/kg/day
  NOAEL: ≥ 750 mg/kg/day
